Data published in ChEMBL document CHEMBL1201862, “PubChem BioAssay data set” (2004).
Calls of active or inactive are those of the source.

Legend:
[1] = inhibitors of SNCA 5'UTR-driven reporter translation, confirmation, H4 neuroglioma cells, luminescence (AID 1988); format: functional, cell-based
[2] = cytotoxicity toward DRD oncogenic fibroblasts, dose response, cell-based, non-viral oncogenic, luminescence (AID 1934); format: functional; details: Homo sapiens
[3] = Luminescence Cell-Based Dose Response HTS to Identify Inhibitors of 5'UTR Stem-Loop Driven Prion Protein mRNA Translation in H4 Neuroglioblastoma Cells. [Related pubchem assays: 1827 (Project Summary), 1813 (Primary HTS)]; format: functional
BJ [4] = test: cells; format: functional, cell-based; details: Homo sapiens
[5] = inhibitors of firefly luciferase expression or activity, dose response, H4 neuroglioma cells, luminescence (AID 1990); format: functional, cell-based
BJ [6] = test: cytotoxicity toward BJ-TERT fibroblasts, dose response, cell-based, RAS-independent, luminescence (AID 1933); format: functional; details: Homo sapiens
BJ [7] = test: cytotoxicity toward BJ-TERT-LT-ST fibroblasts, dose response, cell-based, RAS-independent, luminescence (AID 1935); format: functional; details: Homo sapiens;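 also: BJ fibroblasts immortalized with TERT plus LT and ST oncogenes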
[8] = control 3'UTR Renilla luciferase suppression, dose response, counter-screen for Shn3 inhibitor project, cell-based, Clone20-Shn3RL, cherry-picked (AID 624133); format: functional
[9] = Shn3 3'UTR reporter inhibitors, dose response, cell-based, Clone20 osteoblasts, firefly luciferase, cherry-picked (AID 624132); format: functional;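 also: firefly luciferase luminescence from reporter carrying the Shn3 3'UTR in osteoblasts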
cells [10] = format: functional, cell-based
cells [11] = format: functional, cell-based; remark: listed apart in the source
[12] = system: Streptococcus sp. 'group A'; test: growth inhibition of control SK(-) GAS strain, dose response, counter-screen for streptokinase expression inhibitor project, luminescence, kanamycin, BacTiterGlo, confirmation (AID 1900); format: functional, organism-based
Streptococcus = test: Group A Streptococcus viability loss, dose response, counter-screen for streptokinase expression inhibitor project, luminescence, BacTiterGlo (AID 1915); format: functional, organism-based;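 also: potency for reduction of bacterial viability or growth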
[13] = Luminescence Cell-Based Dose Retest to Confirm Inhibitors of Cancer Stem Cells. [Related pubchem assays (depositor defined):AID2717, AID2721]; format: functional; details: Homo sapiens
Streptokinase A = target: T1, Streptokinase A (Streptococcus pyogenes serotype M1, UniProt P10520); test: S. pyogenes streptokinase expression inhibitors, potency, dose response, plasminogen activation absorbance, OD405 (AID 1914); format: functional, Streptococcus pyogenes M1 GAS;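 also: secreted streptokinase activity via plasminogen activation per viability signal from cell pellet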
T1 sequence (P10520 whole entry): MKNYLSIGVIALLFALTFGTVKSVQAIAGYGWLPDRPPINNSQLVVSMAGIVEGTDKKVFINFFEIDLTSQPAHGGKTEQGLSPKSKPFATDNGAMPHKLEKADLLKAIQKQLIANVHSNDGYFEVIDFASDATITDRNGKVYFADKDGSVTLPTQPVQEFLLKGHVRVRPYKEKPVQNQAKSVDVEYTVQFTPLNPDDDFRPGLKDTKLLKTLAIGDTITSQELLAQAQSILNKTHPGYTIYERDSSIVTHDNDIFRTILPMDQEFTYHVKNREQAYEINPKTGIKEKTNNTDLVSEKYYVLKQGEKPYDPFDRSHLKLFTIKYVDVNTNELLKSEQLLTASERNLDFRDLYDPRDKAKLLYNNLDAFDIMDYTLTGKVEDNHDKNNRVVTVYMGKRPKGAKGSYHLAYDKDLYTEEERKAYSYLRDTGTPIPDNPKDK

Cytochrome P450 2C19 = Cytochrome P450 2C19 (Homo sapiens, UniProt P33261); test: Cytochrome panel assay with activity outcomes. Panel member name: p450-cyp2c19 Compounds with AC50 equal or less than 10 uM are considered active; format: functional; details: read-out: AC50
[14] = Luminescence Cell-Based Dose Confirmation HTS to Identify Activators of 5'UTR Stem-Loop Driven Alpha-Synuclein mRNA Translation in H4 Neuroglioblastoma Cells. [Related pubchem assays: 1829 (Project Summary), 1814 (Primary HTS)]; format: functional
[15] = Luminescence Cell-Based Dose Response HTS to Identify Activators of Luciferase Translation or Activity in H4 […] Cells. [Related pubchem assays: 1829 (Project Summary), 1814 (Primary HTS)]; format: functional
H4 = test: Luminescence Cell-Based Dose Response HTS to Identify Activators of 5'UTR Stem-Loop Driven Prion Protein mRNA Translation in H4 Neuroglioblastoma Cells. [Related pubchem assays: 1829 (Project Summary), 1814 (Primary HTS)]; format: functional; details: Homo sapiens
[16] = Luminescence Cell-Based Dose Confirmation HTS to Identify Inhibitors of Platelet Dense Granule Release. [Related pubchem assays: 1663 (Primary HTS), 1678 (Summary of Project)]; format: functional
[17] = target: Luciferin 4-monooxygenase (Photinus pyralis, UniProt P08659); test: firefly luciferase enzyme inhibitors, dose response, biochemical, luminescence (AID 1891)
Cytochrome P450 2D6 = Cytochrome P450 2D6 (Homo sapiens, UniProt P10635);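 also: CYP2D6 member of a cytochrome P450 panel assay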
Protein skinhead-1 = target: T2, Protein skinhead-1 (Caenorhabditis elegans, UniProt P34707); format: functional
T2 sequence (P34707 whole entry): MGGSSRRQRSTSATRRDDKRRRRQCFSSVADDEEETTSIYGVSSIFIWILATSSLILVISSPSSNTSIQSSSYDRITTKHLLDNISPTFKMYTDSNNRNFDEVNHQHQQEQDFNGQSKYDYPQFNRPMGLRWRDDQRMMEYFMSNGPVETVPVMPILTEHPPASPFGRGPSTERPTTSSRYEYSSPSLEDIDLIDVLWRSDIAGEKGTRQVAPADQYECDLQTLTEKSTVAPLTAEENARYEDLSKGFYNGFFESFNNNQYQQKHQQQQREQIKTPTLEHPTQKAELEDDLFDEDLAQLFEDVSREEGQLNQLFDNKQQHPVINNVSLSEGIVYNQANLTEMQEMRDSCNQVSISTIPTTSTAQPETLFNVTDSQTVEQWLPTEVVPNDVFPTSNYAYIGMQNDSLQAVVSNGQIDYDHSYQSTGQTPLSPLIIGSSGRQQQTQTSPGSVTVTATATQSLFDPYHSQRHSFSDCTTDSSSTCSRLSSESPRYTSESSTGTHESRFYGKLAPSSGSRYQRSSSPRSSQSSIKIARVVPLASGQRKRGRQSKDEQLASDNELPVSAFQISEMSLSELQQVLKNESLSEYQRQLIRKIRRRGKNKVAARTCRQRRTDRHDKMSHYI

[18] = target: T3, Zinc finger protein mex-5 (Caenorhabditis elegans, UniProt Q9XUB2); test: MEX-5/TCR-2 RNA interaction inhibitors, dose response, biochemical, C. elegans, fluorescence polarization (AID 1960)
T3 sequence (Q9XUB2 whole entry): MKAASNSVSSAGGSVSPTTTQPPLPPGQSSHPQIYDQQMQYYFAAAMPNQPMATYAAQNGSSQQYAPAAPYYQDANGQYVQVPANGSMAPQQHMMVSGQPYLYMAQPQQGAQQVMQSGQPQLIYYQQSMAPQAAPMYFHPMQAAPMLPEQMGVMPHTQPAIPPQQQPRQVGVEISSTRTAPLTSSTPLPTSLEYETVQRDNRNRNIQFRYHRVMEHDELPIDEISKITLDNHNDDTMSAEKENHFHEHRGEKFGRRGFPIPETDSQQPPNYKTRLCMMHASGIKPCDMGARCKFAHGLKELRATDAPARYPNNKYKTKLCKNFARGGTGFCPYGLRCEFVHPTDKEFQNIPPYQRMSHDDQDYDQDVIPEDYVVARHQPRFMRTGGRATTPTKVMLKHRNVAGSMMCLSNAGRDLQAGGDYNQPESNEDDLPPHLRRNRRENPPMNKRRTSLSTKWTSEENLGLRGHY

[19] = target: T4, RNA-binding protein pos-1 (Caenorhabditis elegans, UniProt G5EF15); test: inhibitors of POS-1/mex-3 RNA binding, dose response, biochemical, fluorescence polarization (AID 1964);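 also: purified POS-1 fused to maltose binding protein made in E. coli; potency of compounds blocking POS-1 binding to fluorescent RNA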
T4 sequence (G5EF15 whole entry): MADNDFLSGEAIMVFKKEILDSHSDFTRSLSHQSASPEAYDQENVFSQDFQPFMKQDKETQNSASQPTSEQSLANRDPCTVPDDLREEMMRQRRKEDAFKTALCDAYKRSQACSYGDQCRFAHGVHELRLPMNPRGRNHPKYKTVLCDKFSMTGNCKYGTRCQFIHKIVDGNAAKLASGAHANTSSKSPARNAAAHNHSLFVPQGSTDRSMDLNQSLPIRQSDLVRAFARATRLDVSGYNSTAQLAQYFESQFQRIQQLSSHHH

INS1 = test: beta cell apoptosis inhibitors, cytokine rescue, dose response, luminescence, retest (AID 449756); format: functional, cell-based; details: Rattus norvegicus;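 also: cell death triggered by IL-1 beta plus TNF-alpha plus IFN-gamma mixture; protective hits raise ATP signal compared with cytokine alone wells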
H9c2 = test: cells; format: functional, cell-based; details: Rattus norvegicus, H9c2, Myocardium;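 also: confirmatory concentration-response retest of ultra-high-throughput screening hits for modulation of myocardial damage; cell death induced by hydrogen peroxide oxidative stress; compound pretreatment for 60 min then peroxide exposure for 2 h; potency is for protecting the cells against peroxide damage rather than for killing them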
Paired box protein Pax-8 = Paired box protein Pax-8 (Homo sapiens, UniProt Q06710); test: inhibitors of PAX8-driven TPO luciferase reporter, dose response, RMG-I cells, cherry-pick (AID 687027); format: functional, cell-based;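 also: luciferase reporter driven by Pax8 target thyroperoxidase promoter measured by SteadyGlo luminescence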
[20] = inhibitors of clade B AD8 Env fusion, dose response, cell-based, cherry-pick (AID 652062); format: functional;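 also: luciferase signal from cell-cell fusion driven by HIV-1 clade B AD8 Env; potency is for inhibitors of fusion seen as a drop in luminescence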
[21] = inhibitors of HIV Env-driven cell fusion, dose response, cherry-pick (AID 652057); format: functional, cell-based

Chain of Cytochrome P450 2D6 (P10635 whole entry): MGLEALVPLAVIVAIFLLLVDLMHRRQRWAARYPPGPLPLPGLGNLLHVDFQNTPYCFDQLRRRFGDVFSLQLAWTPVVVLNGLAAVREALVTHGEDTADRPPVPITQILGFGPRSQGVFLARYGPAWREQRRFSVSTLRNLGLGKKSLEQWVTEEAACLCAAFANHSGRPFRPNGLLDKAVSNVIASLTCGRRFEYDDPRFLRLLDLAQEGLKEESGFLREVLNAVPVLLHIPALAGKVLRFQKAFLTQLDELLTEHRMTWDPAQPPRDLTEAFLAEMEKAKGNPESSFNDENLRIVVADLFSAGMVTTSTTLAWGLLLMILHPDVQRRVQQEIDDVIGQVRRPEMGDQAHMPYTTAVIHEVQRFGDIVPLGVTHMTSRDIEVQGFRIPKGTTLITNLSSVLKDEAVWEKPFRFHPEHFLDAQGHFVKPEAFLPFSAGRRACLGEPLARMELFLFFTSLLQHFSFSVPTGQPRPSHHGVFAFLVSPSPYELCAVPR
Chain of Cytochrome P450 2C19 (P33261 whole entry): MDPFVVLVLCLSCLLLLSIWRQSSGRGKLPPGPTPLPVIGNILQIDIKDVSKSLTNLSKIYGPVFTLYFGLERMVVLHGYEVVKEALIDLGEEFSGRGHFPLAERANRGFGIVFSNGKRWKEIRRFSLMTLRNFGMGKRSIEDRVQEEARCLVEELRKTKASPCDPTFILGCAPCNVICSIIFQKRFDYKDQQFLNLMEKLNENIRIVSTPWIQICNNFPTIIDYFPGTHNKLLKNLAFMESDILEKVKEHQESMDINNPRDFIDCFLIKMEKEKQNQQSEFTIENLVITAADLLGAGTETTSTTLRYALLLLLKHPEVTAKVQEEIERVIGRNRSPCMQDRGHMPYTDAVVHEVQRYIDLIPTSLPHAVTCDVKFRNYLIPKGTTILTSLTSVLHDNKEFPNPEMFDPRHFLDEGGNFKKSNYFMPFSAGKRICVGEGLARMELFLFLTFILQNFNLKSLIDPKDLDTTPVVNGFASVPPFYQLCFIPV
Chain of Paired box protein Pax-8 (Q06710 whole entry, the tested form may be a part): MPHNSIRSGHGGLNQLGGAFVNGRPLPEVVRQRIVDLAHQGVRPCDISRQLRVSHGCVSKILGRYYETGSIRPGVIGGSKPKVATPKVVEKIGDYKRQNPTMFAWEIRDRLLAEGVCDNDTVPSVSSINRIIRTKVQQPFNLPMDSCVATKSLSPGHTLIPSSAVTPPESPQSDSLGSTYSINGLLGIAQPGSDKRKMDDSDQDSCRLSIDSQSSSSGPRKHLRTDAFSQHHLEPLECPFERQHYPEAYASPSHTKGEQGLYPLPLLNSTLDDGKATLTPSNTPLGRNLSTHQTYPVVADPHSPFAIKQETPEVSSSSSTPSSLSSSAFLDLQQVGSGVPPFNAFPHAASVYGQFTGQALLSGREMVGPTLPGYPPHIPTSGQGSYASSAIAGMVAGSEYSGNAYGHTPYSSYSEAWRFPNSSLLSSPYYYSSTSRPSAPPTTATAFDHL
Chain of Luciferin 4-monooxygenase (P08659 whole entry): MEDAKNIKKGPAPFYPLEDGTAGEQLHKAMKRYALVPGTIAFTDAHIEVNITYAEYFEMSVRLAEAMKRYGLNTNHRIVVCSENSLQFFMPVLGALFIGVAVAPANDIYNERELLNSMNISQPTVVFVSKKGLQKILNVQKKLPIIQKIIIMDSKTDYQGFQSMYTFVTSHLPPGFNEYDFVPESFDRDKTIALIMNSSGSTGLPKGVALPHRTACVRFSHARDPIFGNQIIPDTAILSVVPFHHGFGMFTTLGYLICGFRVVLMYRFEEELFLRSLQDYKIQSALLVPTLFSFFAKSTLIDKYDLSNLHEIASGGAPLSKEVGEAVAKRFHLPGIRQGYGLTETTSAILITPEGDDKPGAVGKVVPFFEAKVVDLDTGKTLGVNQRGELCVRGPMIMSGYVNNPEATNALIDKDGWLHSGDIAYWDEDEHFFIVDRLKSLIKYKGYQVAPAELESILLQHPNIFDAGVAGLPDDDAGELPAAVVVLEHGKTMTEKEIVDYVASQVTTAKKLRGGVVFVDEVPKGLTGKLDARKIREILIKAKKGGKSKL

Cc1ccc(C(=O)c2cc([N+](=O)[O-])ccc2N2CCOCC2)cc1
EC50 [1]: 1.73 µM (active) | EC50 [2]: 2.27 µM (active) | EC50 [3]: 7.18 µM (active) | EC50 (BJ [4]): 36.1 µM (inconclusive) | EC50 [5]: 7.57 µM (active) | EC50 (BJ [6]): 5.09 µM (active) | EC50 (BJ [7]): 3.32 µM (inconclusive)

N#C/C(=C(\O)Cc1ccccc1)c1nc2ccccc2[nH]1
AC50 [8]: 23.2 µM (active) | AC50 [9]: > 70 µM (inactive)

COc1ccc(CCNC(=O)CSc2nc(-c3ccc(OC)c(OC)c3)ccc2C#N)cc1
EC50 (cells [10]): > 350 µM (not active) | EC50 (cells [11]): > 350 µM (not active)

Cc1cccc2[nH]c3c(N4CC=C(c5ccc(F)cc5)CC4)ncnc3c12
EC50 [12]: 2.84 µM (active) | EC50 (Streptococcus): 7.98 µM (active) | AC50 [13]: 6.48 µM (active) | EC50 (Streptokinase A): > 150 µM (not active)

Cc1nc(C(=O)Nc2ccc(Cl)cc2Cl)nn1-c1cc(OC(C)C)c(Cl)cc1Cl
EC50 (cells [10]): > 350 µM (not active) | EC50 (cells [11]): > 350 µM (not active) | AC50 (Cytochrome P450 2C19): 7.08 µM (inconclusive)

O=C(NCc1ccco1)c1cc(-c2cccs2)on1
EC50 (cells [10]): > 350 µM (not active) | EC50 (cells [11]): 150 µM (active)

COc1ccccc1C(c1nnnn1CC1CCCO1)N1CCC(C(N)=O)CC1 (centres undefined)
EC50 (cells [10]): > 350 µM (not active) | EC50 (cells [11]): > 350 µM (not active)

O=C(CC1SC(N2CCCC2)=NC1=O)Nc1ccc(C(=O)Nc2ncccc2O)cc1 (centres undefined)
EC50 [14]: 16.5 µM (active) | EC50 [15]: 11.1 µM (active) | EC50 (cells [10]): > 350 µM (not active) | EC50 (cells [11]): 40.5 µM (active) | EC50 (H4): 12.3 µM (active)

COc1ccc(C(=O)Nc2ccc(N3CCCC3)cc2)cc1OC
EC50 [16]: 1.03 µM (active) | EC50 [17]: 1.45 µM (active) | EC50 [2]: 11.2 µM (active) | EC50 (BJ [4]): 12.9 µM (active) | EC50 (BJ [6]): 14.9 µM (active) | EC50 (BJ [7]): > 150 µM (not active)

Cc1ccc(N=C(S)Nc2ccc(C(C)C)cc2)cc1S(=O)(=O)N1CCCCCC1
EC50 [12]: 13.2 µM (active) | EC50 (Streptococcus): > 150 µM (not active) | AC50 [13]: 2.1 µM (active) | EC50 (Streptokinase A): > 150 µM (not active)

CCCNc1c(F)c(F)c2c(C)c3ccccc3nc2c1F
AC50 (Cytochrome P450 2D6): 25.1 µM (inconclusive) | IC50 (Protein skinhead-1): > 100 µM (inactive) | EC50 [18]: 1.97 µM (active) | EC50 [19]: > 300 µM (inconclusive)

COC(=O)c1ccc(COc2ccccc2/C=C(\C#N)C(=O)Nc2c(C)cccc2C)cc1
AC50 [13]: 2.46 µM (active) | AC50 (INS1): 28.4 µM (active)

COc1ccc(-c2cc(C(=O)OCC(=O)c3cccc([N+](=O)[O-])c3)c3cc(C)ccc3n2)cc1
EC50 [2]: > 150 µM (not active) | EC50 (BJ [4]): > 150 µM (not active) | EC50 (BJ [6]): > 150 µM (not active) | EC50 (BJ [7]): > 150 µM (not active)

O=c1c2ccccc2oc2ccc(C#CC3(O)CCCCC3)cc12
AC50 [13]: 6.5 µM (active)

COc1cccc(/C=N/Nc2nc3ccccc3n3cnnc23)c1
EC50 [1]: 15.6 µM (active) | EC50 [3]: > 120 µM (not active) | EC50 [5]: > 120 µM (not active) | IC50 (H9c2): > 79 µM (inactive) | EC50 (cells [10]): 191 µM (active) | EC50 (cells [11]): > 350 µM (not active)

Cc1ccc(/C=N/NC(=O)COc2ccccc2-c2ccccc2)cc1
EC50 [2]: 0.657 µM (active) | EC50 (BJ [4]): 0.605 µM (inconclusive) | AC50 (Paired box protein Pax-8): 770 nM (active) | EC50 (BJ [6]): 0.643 µM (inconclusive) | EC50 (BJ [7]): 0.435 µM (inconclusive)

CCC(=O)N(C)C[C@@H]1Oc2cc(C#Cc3ccccc3)ccc2S(=O)(=O)N([C@@H](C)CO)C[C@H]1C
AC50 [20]: 30.3 µM (active) | AC50 [21]: 26.2 µM (active)

Cc1ccc(S(=O)(=O)N(C)C[C@@H]2Oc3ccc(NC(=O)Cc4ccccc4)cc3CC(=O)N([C@H](C)CO)C[C@@H]2C)cc1
AC50 [20]: 2.32 µM (active) | AC50 [21]: < 0.26 µM (active)

O=C(COc1ccc(-c2ccccc2)cc1)N/N=C/c1cc(O)ccc1Br
EC50 [12]: 2.51 µM (active) | EC50 (Streptococcus): 4.98 µM (active) | AC50 [13]: 4.31 µM (active) | EC50 (Streptokinase A): 5.71 µM (active)

O=C(CCCOc1ccc(Cl)cc1Cl)N/N=C/c1ccccc1O
EC50 (cells [10]): > 350 µM (not active) | EC50 (cells [11]): 11.8 µM (active)
